The subject of assay [1] is BT20 breast cancer cells. The conditions noted are these: reactivation of epigenetically silenced ERBB4; cited from earlier work.
The subject of assay [2] is metastatic triple negative breast cancer (mTNBC). Description: Clinical tumor response of metastatic/locally recurrent TNBC patients to prior and molecularly-selected therapy (TNBC personalized genomics trial). Format: in vivo, human. The source says:
The secondary objective is to conduct a comprehensive evaluation of genetic mutations in TNBC that may accelerate the development of rational and precise therapeutics; and to evaluate patient's best response to molecularly-selected therapy.
A patient eligible for clinical trial inclusion in this study had to meet all of the following criteria: (1) has a metastatic or locally recurrent triple negative breast cancer and is scheduled for medically indicated surgical biopsy or resection of disease; (2) have measurable or evaluable (nonmeasurable) disease based on results generated by RECIST v 1.1 (Eisenhauera, 2009) presented after surgical biopsy/resection. Following surgical resection, if the tumor sample is found to be inadequate for comprehensive molecular analysis, the patient would be deemed ineligible and would be replaced; (3) has received at least 1 prior chemotherapeutic regimen for their metastatic or locally recurrent TNBC prior to initiating the molecularly-selected therapy. There is no limit on the prior therapy for TNBC. Intervening therapies were strongly recommended to be held off if possible from the time of biopsy to the completion of sequencing so as not to change the cancer under the selective pressure of treatment, so that the sequencing results would be reflective of the current cancer; (4) is >18 years of age; (5) has an expected survival of at least 6 months, as estimated by the treating oncologist; (6) has planned surgical resection (indicated for the medical care of the patient) that will yield a minimum fresh/frozen tumor sample of 1 cm×1 cm×1 cm that will be available for molecular profiling analysis; (6) is agreeable to having a blood sample (10-20mL) drawn and analyzed to compare their normal genetic profile to that of their tumor sample; (7) has signed the most recent Patient Informed Consent Form and a Patient Authorization Form.
A patient would be excluded from this study if she meets any of the following criteria: (1) has breast cancer other than metastatic or locally recurrent TNBC; and surgical resection of the recurrent TNBC will render the patient as “no evidence of disease” (NED), and thus to be replaced; (2) has a history of heart disease, other conditions that would prevent treatment with a standard chemotherapeutic agent; (3) has evidence of CNS involvement that is progressing or that requires radiation, resection or steroid therapy; (4) has a serious uncontrolled intercurrent medical or psychiatric illness, including serious infection; (5) is pregnant or nursing; (6) is unable to comply with requirements of study.
Generally, 14 patients with previously treated triple negative breast cancer were included in the clinical study (Table 11). Samples were collected for sequencing with the SOLiD™ system (Applied Biosystems, Carlsbad, Calif.), and the patients were treated according to what is found after CLIA certification of the target.
The baseline was measured at the beginning of the treatment, after 2 cycles (close to two months), 75% regression in primary lesion were observed (FIG. 11).
Through the deep molecular profiling study described herein, a series of somatic events within individual tumors were detected that have informed or may have predicted the effectiveness of targeted therapies for some patients. Table 21 provides key information on therapeutically actionable concepts and clinical outcomes in the patient cohort used for this example.

For the compound `Nc1ncn([C@H]2C[C@H](O)[C@@H](CO)O2)c(=O)n1` [5-aza-2′-deoxycytidine], the apoptosis result in assay [1] is reported as “increased apoptosis”.
`Cn1c(=O)n(-c2ccc(C(C)(C)C#N)cc2)c2c3cc(-c4cnc5ccccc5c4)ccc3ncc21` [BEX235]: in assay [2] (Patient # 1, biomarker profile guided treatment (hit only one arm of what suggested MEK/AKT)), the Best results was “Stable Disease”.
Consider `Cn1c(=O)n(-c2ccc(C(C)(C)C#N)cc2)c2c3cc(-c4cnc5ccccc5c4)ccc3ncc21` [BEZ235], for which, in assay [2] (Patient 14), the reduction in nodes came to 21%. Further, the Best results in assay [2] (Patient # 3, biomarker profile guided treatment) is “Progressive Disease”.
As to `C=C1C[C@@H]2CC[C@@]34C[C@H]5O[C@H]6[C@@H](O3)[C@H]3O[C@H](CC[C@@H]3O[C@H]6[C@H]5O4)CC(=O)C[C@@H]3[C@@H](OC)[C@@H](C[C@H](O)CN)O[C@H]3C[C@H]3O[C@@H](CC[C@@H]1O2)C[C@@H](C)C3=C` [Eribulin, eribulin], the Best results in assay [2] (Patient # 4, biomarker profile guided treatment) is on record as “Stable Disease”.
For `NC(=O)c1ccc(I)c([N+](=O)[O-])c1` [Iniparib], the clinical response entry in assay [2] (patient mTNBC9 / TNBC-009 (DNA damage and double-strand break repair defects)) is listed as “responsive”.

The values above are taken from US20170166981A1, “BIOMARKERS AND METHODS OF USE THEREOF” (THE TRANSLATIONAL GENOMICS RESEARCH INSTITUTE, priority 2011, published 2017).
